Results published in patent US9040673B2, “Synthesis and identification of novel RSK-specific inhibitors” (University of Virginia Patent Foundation, priority 2009, dated 2015).
pEC50: −log10 of the molar value.

Key:
[1] = tested on: human umbilical vein endothelial cells (HUVEC); assay: HUVEC wound migration assay; assay type: cell-based; settings: 60 μM, 1 hr prior to wounding; up to 20 hr
Excerpt: In these experiments, HUVEC were cells were subcultured to confluence in 35-mm plates. […] Scratches were made in the monolayer of cells using sterile, disposable micropipette tips. Images were captured—2 hr, 10 hr, and 20 hr after wounding. By 10 hr after wounding, the vehicle-treated cells at the wound edge have migrated toward the wound. Gaps in the monolayer behind the wound edge are apparent. The SL0101-treated cells have recovered from the wounding, however they show little signs of polarization toward the wound and no involvement of the cells behind the wound edge. At 20 hr, the vehicle-treated cells have migrated into the wound yet the gaps are still present behind the wound edge. The cells at the wound edge in the SL0101-treated well appear to have increased in size to fill the wound rather than migrate into the wound and the monolayered cells behind the wound edge remain tightly packed unlike the vehicle-treated cells. Accordingly the data support the premise that RSK inhibitors are useful tools to stop endothelial cell migration.

MAPK, MEK, Raf and PKC = assay: effect on upstream kinases of PDB-stimulated RSK phosphorylation in intact cells (immunoblot); assay type: cell-based, human
Protocol: (§1) To determine whether SL0101-1 inhibits RSK in intact cells, phosphorylation of p140, a RSK substrate of unknown function, was examined in a human breast cancer cell line, MCF-7. MCF-7 and MCF-10A cells were pre-incubated with vehicle, 50 μM U0126 or the indicated concentration of SL0101-1 for 3 hr (FIG. 8D). Cells were treated with 500 nM PDB for 30 min prior to lysis. Protein concentration of lysates was measured and lysates were electrophoresed, transferred and immunoblotted. […] Pre-incubation of cells with 100 μM SL0101-1 abrogates phorbol dibutyrate (PDB)-induced p140 phosphorylation as does 50 μM U0126, a MEK inhibitor.
(§2) Cell Culture. For proliferation studies cells were seeded at 2500 to 5000 cells per well in 96 well tissue culture plates in the appropriate medium as described by American Type Culture Collection. After 24 hr, the medium was replaced with medium containing compound or vehicle as indicated. Cell viability was measured at indicated time points using CellTiter-Glo™ assay reagent (Promega) according to manufacturer's protocol. For in vivo inhibition studies, cells were seeded at 2.5×10^5 cells/well in 12 well cell culture clusters. After 24 hr, the cells were serum starved for 24 hr then incubated with compound or vehicle for 3 hr prior to a 30 min PDB stimulation. Cells were lysed as previously described (J. Biol. Chem. 273, 13317-13323 (1998)). […]

Y. pseudotuberculosis = assay type: cell-based, Yersinia pseudotuberculosis; settings: 60 μM, liquid LB medium
[2] = tested on: Yersinia pseudotuberculosis; assay type: cell-based; settings: 60 μM, 4 hours prior to infection (MOI=25)
MCF-10A cells = assay: MCF-10A cell proliferation; assay type: cell-based, human; settings: 50 μM (FIG. 8A)
Protocol: The cell number was measured after 48 h of treatment. Values given are the fold proliferation as a percentage of that observed with vehicle-treated cells. Points, mean (n=2 in quadruplicate); bars=SD.
(§3) FIGS. 8A-8D SL0101-1 inhibits the proliferation of cancer cells but not normal cells. […] Cell viability was measured at indicated time points. Proliferation assays were conducted using CellTiter-Glo Luminescent Cell Viability Assay (Promega), performed 44 hrs after treatment for FIGS. 8A &B and at indicated points for FIG. 8C. The data are expressed relative to time 0.
(§4) Cell Culture. For proliferation studies cells were seeded at 2500 to 5000 cells per well in 96 well tissue culture plates in the appropriate medium as described by American Type Culture Collection. After 24 hr, the medium was replaced with medium containing compound or vehicle as indicated. Cell viability was measured at indicated time points using CellTiter-Glo™ assay reagent (Promega) according to manufacturer's protocol. For in vivo inhibition studies, cells were seeded at 2.5×10^5 cells/well in 12 well cell culture clusters. After 24 hr, the cells were serum starved for 24 hr then incubated with compound or vehicle for 3 hr prior to a 30 min PDB stimulation. Cells were lysed as previously described (J. Biol. Chem. 273, 13317-13323 (1998)). The lysates were normalized for total protein, electrophoresed and immunoblotted. For cell imaging, Ha-Ras-transformed NIH/3T3 cells were seeded on LABTEK II chamber slides (Nalge) at a density of 1×10^4 cells/well. After 24 hr, fresh medium was added the indicated compounds or vehicle. Images were taken 48 hr after treatment at a magnification of 20×.

p140, a RSK substrate [3] = assay: PDB-induced p140 phosphorylation in MCF-7 cells (immunoblot); assay type: cell-based, human; settings: 100 μM, 3 hr pre-incubation, 500 nM PDB 30 min
Protocol: as §1, §2

[4] = tested on: mouse primary peritoneal macrophages; assay: LPS-induced iNOS expression in primary peritoneal macrophages; assay type: cell-based; settings: 60 μM, 1 μg/ml LPS, 24 hours
LNCaP cells = assay: LNCaP cell proliferation; assay type: cell-based, human; settings: 50 μM (FIG. 8B)
Protocol: as §3
as §4, with “Images were taken 48 hr after treatment at a magnification of 20×.” left out

p140, a RSK substrate [5] = assay: p140 phosphorylation in LNCaP line (anti-RPM antibody); assay type: cell-based, human
Protocol: The ability of SL0101-1 to inhibit the proliferation of the androgen-dependent human prostate line, LNCaP was tested. […] To investigate the RSK signal transduction pathway in the LNCaP line, a phosphospecific antibody to a RSK phosphorylation motif (RPM) was produced. Only a few downstream effectors of RSK have been identified and therefore, applicants anticipated that an anti-RPM antibody would be a very effective tool for identifying novel RSK substrates in vivo. An anti-RPM antibody has previously been reported that recognizes the RSK substrate, p140, a protein of unknown function. […] All lysates were normalized to each other using an anti-Ran antibody. Ran is used for normalization based on the observations that it is a general housekeeping protein, the activity or expression levels of which are not known to vary in any disease state.

MCF-7 cells = assay: MCF-7 cell proliferation (CellTiter-Glo cell viability); assay type: cell-based, human
VCAM = assay: LPS-induced VCAM expression in HUVEC cells; assay type: cell-based, human; settings: 1 μg/ml LPS, 24 hours
Excerpt: Twenty-four hours after LPS treatment, the cells were harvested with SDS lysis buffer in preparation for SDS-PAGE and immunoblot analysis. Lysates were normalized with regard to protein concentration. Equivalent loading was confirmed by use of an anti-Ran immunoblot.

macrophages = assay type: cell-based

For `CC(=O)O[C@@H]1[C@@H](OC(C)=O)[C@@H](O)[C@H](Oc2c(-c3ccc(O)cc3)oc3cc(O)cc(O)c3c2=O)O[C@H]1C` [SL0101, kaempferol 3-O-(3″,4″-di-O-acetyl-α-L-rhamnopyranoside)], the “migration of HUVEC into wound” value [1] was “reduce the ability of the cells to migrate”, the “phosphorylation of RSK2” value (MAPK, MEK, Raf and PKC) was “does not effect the phosphorylation of RSK2” and the “direct effect on growth of Y. pseudotuberculosis” value (Y. pseudotuberculosis) was “does not directly affect the growth”. The “live bacteria extracted from treated macrophages” value [2] was “fewer live bacteria are extracted”, the “proliferation of MCF-10A cells” value (MCF-10A cells) was “no effect on the growth” and the “PDB-induced p140 phosphorylation” value (p140, a RSK substrate [3]) was “abrogates”. For the same molecule, the “LPS-induced iNOS expression” value [4] was “abrogates iNOS expression”, the “proliferation of LNCaP cells” value (LNCaP cells) was “completely inhibits the proliferation” and the “phosphorylation of p140” value (p140, a RSK substrate [5]) was “decrease the phosphorylation of p140”. The “inhibition of MCF-7 cell growth” value (MCF-7 cells; 50 uM) was “similarly effective at inhibiting MCF-7 cell growth”, the “proliferation of MCF-7 cells” value (MCF-7 cells; 50 μM (FIG. 8A)) was “inhibited proliferation” and the pEC50 (MCF-7 cells; Homo sapiens, MCF7, read-out: EC50 of MCF-7 cell proliferation inhibition) was about 4.30. The “expression of VCAM” value (VCAM) was “reduced expression of the angiogenesis marker VCAM in a dose-dependent manner” and the “Y. pseudotuberculosis-induced actin rearrangement” value (macrophages) was “actin rearrangement is not observed”.
